In data set [1] the target is T1, human sst2A receptor (Homo sapiens, UniProt P30874).
T1 construct: expressed in transfected cells; host or cells: HEK293 (HEK-sst2)
The experiment in a line: Immunofluorescence-based sst2 internalization assay in HEK-sst2 cells. Type of data set: cell-based. As to conditions: n ≧ 2. The method, then:
Immunofluorescence-based sst2 Internalization Assay. Immunofluorescence microscopy-based internalization assay for sst2 was performed with HEK-sst2 using the sst2-specific antibody R2-88 as described elsewhere herein. HEK-sst2 cells were treated either with vehicle alone, the sst2 agonist [Tyr^3]-octreotide at a concentration of 100 nM, [Tyr^3]-octreotide at a concentration of 100 nM in the presence of an excess of the SRIF analogues to be tested (100 times the concentration of [Tyr^3]-octreotide), or with the SRIF analogues to be tested alone at a concentration of 10 μM, and then processed for immunofluorescence microscopy as described previously.

For data set [2], the target named is T2, hSSTR5 (Homo sapiens, UniProt P35346).
T2 construct: expressed in transfected cells; host or cells: CHO-K1 or CCL39 cells
In words: Receptor autoradiography, displacement of 125I-[Leu8,D-Trp22,Tyr25]-SRIF-28 from membrane pellet sections. It is filed as binding.

Data set [3] deals with T3, hSSTR2 (Homo sapiens, UniProt P30874).
T3 construct: expressed in transfected cells; host or cells: CHO-K1 or CCL39 cells
The data set is described as above. Type of data set: binding.

Data set [4] has as its target T4, hSSTR3 (Homo sapiens, UniProt P32745).
T4 construct: expressed in transfected cells; host or cells: CHO-K1 or CCL39 cells
The description is as above. Type of data set: binding.

Data set [5] addresses T5, hSSTR1 (Homo sapiens, UniProt P30872).
T5 construct: expressed in transfected cells; host or cells: CHO-K1 or CCL39 cells
Described as above. It is filed as binding.

Data set [6] concerns the target T6, hSSTR4 (Homo sapiens, UniProt P31391).
T6 construct: expressed in transfected cells; host or cells: CHO-K1 or CCL39 cells
The description is as above. It is filed as binding.

The test system of data set [7] is HEK-sst2 tumors. As to conditions: mouse, in vivo.
Procedure: (§1) The following protocol was used to determine biodistribution
(§2) Confirmation that the transfected tumors were indeed expressing solely sst2 was obtained in resected tumor samples tested in vitro with somatostatin receptor autoradiography using subtype selective ligands.
(§3) The biodistribution of was studied at 4 h or 24 h after injection. The organs of interest were collected, blotted dry, weighed, their radioactivity measured and the percentage of injected activity per gram (% IA/g) calculated.
In data set [8] the target is sst2 (Homo sapiens, UniProt P30874). The experiment in a line: Calcium release assay in HEK-sst2 cells (Fluo-4NW). It is filed as cell-based. Further details: expressed in transfected cells; host or cells: HEK293 (HEK-sst2). As to conditions: n ≧ 2. The method, then: Calcium release assay. Intracellular calcium release was measured in HEK-sst2 using the Fluo-4NW Calcium Assay kit as described previously (Magrys, et al. “The role of anti-alpha-enolase autoantibodies in pathogenicity of autoimmune-mediated retinopathy.” J. Clin. Immunol. 2007, 27, 181-192; Michel et al. “The Nef protein of human immunodeficiency virus is a broad-spectrum modulator of chemokine receptor cell surface levels that acts independently of classical motifs for receptor endocytosis and Galphai signaling.” Mol. Biol. Cell. 2006, 17, 3578-3590). In brief, HEK-sst2 cells were seeded (25,000 cells per well) in poly-D-lysine (20 μg/mL) coated 96 well plates and cultured for 1 day at 37° C. and 5% CO2 in culture medium. At the day of the experiment, the cells were washed with assay buffer (1×HBSS, 20 mM HEPES) containing 2.5 mM probenecid, and then loaded with 100 μL/well Fluo-4NW dye in assay buffer containing 2.5 mM probenecid for 30 min at 37° C. and 5% CO2 and then for further 30 min at room temperature. To measure the intracellular calcium mobilization after stimulation with the SRIF analogues to be tested, the dye-loaded cells were transferred to a SpectraMax M2^e (Molecular Devices, Sunnyvale, Calif.). Intracellular calcium mobilization was recorded in a kinetic for 60 sec at room temperature monitoring fluorescence emission at 520 nm (with λex=485 nm) in the presence of the analogues at the concentrations indicated. Maximum fluorescence (Fmax) was measured after the addition of 25 μM ionomycin. Baseline (control) measurements were taken for dye-loaded, untreated cells. Data are shown as percentage of Fmax (% Fmax) as reported previously. (Magrys, et al. J. Clin. Immunol. 2007, 27, 181-192; Michel et al. Mol. Biol. Cell. 2006, 17, 3578-3590). All experiments were repeated at least three times in triplicate.

Data set [9] has as its system HEK-sst2 tumors. In words: In vivo biodistribution of radiolabeled peptides in nude mice bearing HEK-sst2 tumors. As to conditions: mouse, in vivo.
Procedure: as §1, §2, §3
Data set [10] can be described thus: in vivo. As to conditions: female, athymic nude, mouse, iv, total radioactivity, biodistribution.
Procedure: as §1, §2, §3
[11] abbreviates: Table 1, inhibition of radioligand binding to cloned human receptor, read-out: IC50 hSSTR5.
[12] abbreviates: Table 3, mean ± SEM when N ≧ 3, read-out: sst5 binding affinity (IC50).
Where [13] appears, read: Table 1, inhibition of radioligand binding to cloned human receptor, read-out: IC50 hSSTR2.
Where [14] appears, read: Table 3, mean ± SEM when N ≧ 3, read-out: sst2 binding affinity (IC50).
Where [15] appears, read: Table 1, inhibition of radioligand binding to cloned human receptor, read-out: IC50 hSSTR3.
[16] abbreviates: Table 3, mean ± SEM when N ≧ 3, read-out: sst3 binding affinity (IC50).
Setting [17] is: Table 1, inhibition of radioligand binding to cloned human receptor, read-out: IC50 hSSTR1.
Setting [18] is: Table 3, mean ± SEM when N ≧ 3, read-out: sst1 binding affinity (IC50).
Where [19] appears, read: Table 1, inhibition of radioligand binding to cloned human receptor, read-out: IC50 hSSTR4.
Where [20] appears, read: Table 3, mean ± SEM when N ≧ 3, read-out: sst4 binding affinity (IC50).

“And” between values parts separate entries of the source, which are not always exact repeats. Identical values can stand only once. “Also recorded” adds a separate entry of the source. Like-named read-outs stand apart in the source and are kept apart here. Bridge positions count the residues as written; N and C are the ends. Square brackets hold non-standard residues; d marks the D form. Peptide text beside a SMILES is read from it. * marks the point of attachment. ξ: configuration not given here. DOTA = O=C(O)CN1CCN(CC(=O)O)CCN(CC(=O)*)CCN(CC(=O)O)CC1; Phe(4-NO2) = N[C@@H](Cc1ccc([N+](=O)[O-])cc1)C(=O)O; dPhe(4-NHCONH2) = NC(=O)Nc1ccc(C[C@@H](N)C(=O)O)cc1; Phe(4-Cl) = N[C@@H](Cc1ccc(Cl)cc1)C(=O)O; ξDihydroorotoyl = O=C1CC(C(=O)*)NC(=O)N1; 2Nal = N[C@@H](Cc1ccc2ccccc2c1)C(=O)O; ξPhe(4-NH2) = Nc1ccc(CC(N)C(=O)O)cc1

The record followed here is patent US8691761B2, “Somatostatin receptor 2 antagonists” (priority 2006, dated 2014).

The term IC50 denotes the concentration needed to halve the response being measured. As usually defined, the tissue uptake is the percentage of the injected dose found per gram of tissue.

T2 sequence (P35346 whole entry): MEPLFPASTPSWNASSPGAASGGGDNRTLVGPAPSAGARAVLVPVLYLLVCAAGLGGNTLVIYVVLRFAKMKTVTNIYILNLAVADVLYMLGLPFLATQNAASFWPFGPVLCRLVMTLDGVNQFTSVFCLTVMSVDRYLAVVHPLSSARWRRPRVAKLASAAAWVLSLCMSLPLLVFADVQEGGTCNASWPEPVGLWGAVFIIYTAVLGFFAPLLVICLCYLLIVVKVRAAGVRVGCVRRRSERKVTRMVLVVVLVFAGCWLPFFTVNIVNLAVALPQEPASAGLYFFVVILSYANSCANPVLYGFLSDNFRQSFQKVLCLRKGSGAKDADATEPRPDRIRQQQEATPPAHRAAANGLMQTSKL
T1 sequence (P30874 whole entry): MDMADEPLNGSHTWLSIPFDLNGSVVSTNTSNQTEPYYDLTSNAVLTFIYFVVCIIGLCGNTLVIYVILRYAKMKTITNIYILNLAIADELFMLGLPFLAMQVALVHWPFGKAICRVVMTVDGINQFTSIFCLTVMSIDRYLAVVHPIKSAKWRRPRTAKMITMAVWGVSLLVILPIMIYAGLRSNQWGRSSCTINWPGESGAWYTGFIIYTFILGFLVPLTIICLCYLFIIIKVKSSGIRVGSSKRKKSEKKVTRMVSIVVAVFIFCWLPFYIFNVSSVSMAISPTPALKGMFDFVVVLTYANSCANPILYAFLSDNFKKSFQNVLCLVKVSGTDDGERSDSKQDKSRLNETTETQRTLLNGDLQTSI
T3 sequence (P30874 whole entry): as above
Sequence of sst2 (P30874 whole entry): as above
T6 sequence (P31391 whole entry): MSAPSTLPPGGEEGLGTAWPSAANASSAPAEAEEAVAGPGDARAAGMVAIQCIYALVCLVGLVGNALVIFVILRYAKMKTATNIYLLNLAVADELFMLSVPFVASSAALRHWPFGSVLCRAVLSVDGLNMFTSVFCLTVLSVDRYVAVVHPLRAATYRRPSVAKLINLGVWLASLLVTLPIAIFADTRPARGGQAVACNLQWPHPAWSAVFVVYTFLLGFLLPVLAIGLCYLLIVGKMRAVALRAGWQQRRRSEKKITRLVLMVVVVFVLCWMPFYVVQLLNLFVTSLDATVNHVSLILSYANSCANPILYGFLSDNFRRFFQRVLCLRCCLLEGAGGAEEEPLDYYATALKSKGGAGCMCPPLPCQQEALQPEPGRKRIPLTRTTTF
T4 sequence (P32745 whole entry): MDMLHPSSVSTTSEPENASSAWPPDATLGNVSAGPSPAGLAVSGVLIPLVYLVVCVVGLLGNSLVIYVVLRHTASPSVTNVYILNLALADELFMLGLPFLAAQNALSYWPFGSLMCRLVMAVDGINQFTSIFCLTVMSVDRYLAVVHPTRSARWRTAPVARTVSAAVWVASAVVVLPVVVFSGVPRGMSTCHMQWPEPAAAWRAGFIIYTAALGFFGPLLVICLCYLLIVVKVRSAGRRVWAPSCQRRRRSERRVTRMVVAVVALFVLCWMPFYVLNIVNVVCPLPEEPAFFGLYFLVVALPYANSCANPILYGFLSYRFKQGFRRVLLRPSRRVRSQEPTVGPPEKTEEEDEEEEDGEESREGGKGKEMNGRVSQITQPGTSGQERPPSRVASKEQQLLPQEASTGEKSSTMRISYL
T5 sequence (P30872 whole entry): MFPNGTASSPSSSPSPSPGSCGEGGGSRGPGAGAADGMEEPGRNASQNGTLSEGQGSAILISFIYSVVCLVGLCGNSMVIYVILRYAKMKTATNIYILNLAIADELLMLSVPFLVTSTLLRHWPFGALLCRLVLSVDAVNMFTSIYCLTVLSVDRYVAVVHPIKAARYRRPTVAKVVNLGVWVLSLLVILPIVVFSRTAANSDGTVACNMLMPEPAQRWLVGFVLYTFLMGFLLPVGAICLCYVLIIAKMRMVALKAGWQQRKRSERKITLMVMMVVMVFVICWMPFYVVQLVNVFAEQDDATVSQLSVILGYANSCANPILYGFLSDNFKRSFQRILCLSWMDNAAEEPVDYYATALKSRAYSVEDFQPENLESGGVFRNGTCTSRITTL

As to `C[C@@H](O)[C@@H]1NC(=O)[C@H](CCCCN)NC(=O)[C@@H](Cc2ccc(NC(N)=O)cc2)NC(=O)[C@H](Cc2ccc(O)cc2)NC(=O)[C@H](NC(=O)[C@H](Cc2ccc([N+](=O)[O-])cc2)NC(=O)CN2CCN(CC(=O)O)CCN(CC(=O)O)CCN(CC(=O)O)CC2)CSSC[C@@H](C(=O)N[C@H](Cc2ccc(O)cc2)C(N)=O)NC1=O` [Peptide No. 3, DOTA-pNO2Phe-c[DCys-Tyr-DAph(Cbm)-Lys-Thr-Cys]-DTyr-NH2] ({DOTA}-[Phe(4-NO2)][dC]Y[dPhe(4-NHCONH2)]KTC[dY]-NH2; disulfide 2-7), the “sst2-internalization tested in vitro in HEK-sst2 cells (function)” value (“sst2-internalization tested in vitro” for short) in data set [1] is given as “antagonistic property; also recorded: Antagonist”. Also, the concentration for half-maximal inhibition (IC50) in data set [2] (setting [11]) was above 1000 nM; in data set [2] (setting [12]), above 1000 nM; in [3] (setting [13]), 0.53 ± 0.06 nM; in data set [3] (setting [14]) it was 0.75 nM and < 1 nM; in data set [4] (setting [15]), above 1000 nM; in [4] (setting [16]), above 1000 nM. For the same compound, the half-inhibitory concentration (IC50) in data set [5] (setting [17]), in data set [5] (setting [18]), in [6] (setting [19]) and in [6] (setting [20]) was above 1000 nM in each case. Besides, the “sst2 binding affinity relative to SRIF-28” value in data set [3] was “three to four-fold greater”. Moreover, the “tumor to kidney ratio (in words)” value in [7] was “excellent tumor to kidney ratio”. Also, in data set [8], the “Calcium release tested in vitro in HEK-sst2 cells (function)” value (“Calcium release tested in vitro” for short) is reported as “Antagonist”.
In the case of `C[C@@H](O)[C@@H]1NC(=O)[C@H](CCCCN)NC(=O)[C@@H](Cc2ccc(NC(N)=O)cc2)NC(=O)[C@H](Cc2ccc(O)cc2)NC(=O)[C@H](NC(=O)[C@H](Cc2ccc([N+](=O)[O-])cc2)NC(=O)CN2CCN(CC(=O)O)CCN(CC(=O)O)CCN(CC(=O)O)CC2)CSSC[C@@H](C(=O)N[C@@H](Cc2ccc3ccccc3c2)C(N)=O)NC1=O` [Peptide No. 5, DOTA-pNO2Phe-c[DCys-Tyr-DAph(Cbm)-Lys-Thr-Cys]-2Nal-NH2] ({DOTA}-[Phe(4-NO2)][dC]Y[dPhe(4-NHCONH2)]KTC[2Nal]-NH2; disulfide 2-7), in data set [1], the “sst2-internalization tested in vitro” value was “Antagonist”. In addition, the IC50 is above 1000 nM in data set [2] (setting [11]); above 1000 nM in [2] (setting [12]); 1.5 nM in data set [3] (setting [13]); 1.3 nM in data set [3] (setting [14]); above 1000 nM in data set [4] (setting [15]); above 1000 nM in [4] (setting [16]). Besides, the IC50 in [5] (setting [17]), in data set [5] (setting [18]), in data set [6] (setting [19]) and in data set [6] (setting [20]) was above 1000 nM each time. In data set [8], the “Calcium release tested in vitro” value is “Antagonist”. Moreover, the “tumor to kidney ratio (in words)” value in [9] is on record as “excellent tumor to kidney ratio”.
`C[C@@H](O)[C@@H]1NC(=O)[C@H](CCCCN)NC(=O)[C@@H](Cc2ccc(NC(N)=O)cc2)NC(=O)C(Cc2ccc(NC(=O)C3CC(=O)NC(=O)N3)cc2)NC(=O)[C@H](NC(=O)[C@H](Cc2ccc(Cl)cc2)NC(=O)CN2CCN(CC(=O)O)CCN(CC(=O)O)CCN(CC(=O)O)CC2)CSSC[C@@H](C(=O)N[C@@H](Cc2ccc3ccccc3c2)C(N)=O)NC1=O` (stereo partly drawn) [Peptide No. 30, DOTA-Cpa-c[DCys-Aph(Hor)-DAph(Cbm)-Lys-Thr-Cys]-2Nal-NH2] ({DOTA}-[Phe(4-Cl)][dC][ξPhe(4-NH2)](ξDihydroorotoyl)[dPhe(4-NHCONH2)]KTC[2Nal]-NH2; disulfide 2-7): in data set [1], the “sst2-internalization tested in vitro” value is “Antagonist”. For the same compound, the “Calcium release tested in vitro” value in [8] is recorded as “Antagonist”. The “tumor to kidney ratio (in words)” value in [9] is “excellent tumor to kidney ratio”.
With `C[C@@H](O)[C@@H]1NC(=O)[C@H](CCCCN)NC(=O)[C@@H](Cc2ccc(NC(N)=O)cc2)NC(=O)C(Cc2ccc(NC(=O)C3CC(=O)NC(=O)N3)cc2)NC(=O)[C@H](NC(=O)[C@H](Cc2ccc(Cl)cc2)NC(=O)CN2CCN(CC(=O)O)CCN(CC(=O)O)CCN(CC(=O)O)CC2)CSSC[C@@H](C(=O)N[C@H](Cc2ccc(O)cc2)C(N)=O)NC1=O` (stereo partly drawn) [Peptide No. 31, DOTA-Cpa-c[DCys-Aph(Hor)-DAph(Cbm)-Lys-Thr-Cys]-DTyr-NH2] ({DOTA}-[Phe(4-Cl)][dC][ξPhe(4-NH2)](ξDihydroorotoyl)[dPhe(4-NHCONH2)]KTC[dY]-NH2; disulfide 2-7), the “sst2-internalization tested in vitro” value in [1] was “antagonistic property; also recorded: Antagonist”. For the same compound, in data set [3], the “sst2 binding affinity relative to SRIF-28” value is reported as “three to four-fold greater”. In addition, the “tumor to kidney ratio (in words)” value in [7] was “excellent tumor to kidney ratio”. Also, the “Calcium release tested in vitro” value in data set [8] is “Antagonist”.
For the compound `C[C@@H](O)[C@@H]1NC(=O)[C@H](CCCCN)NC(=O)[C@@H](Cc2ccc(NC(N)=O)cc2)NC(=O)[C@H](Cc2ccc(O)cc2)NC(=O)[C@H](NC(=O)[C@H](Cc2ccc(Cl)cc2)NC(=O)CN2CCN(CC(=O)O)CCN(CC(=O)O)CCN(CC(=O)O)CC2)CSSC[C@@H](C(=O)N[C@@H](Cc2ccc3ccccc3c2)C(N)=O)NC1=O` [^111In-labelled Peptide No. 28, metal not drawn] ({DOTA}-[Phe(4-Cl)][dC]Y[dPhe(4-NHCONH2)]KTC[2Nal]-NH2; disulfide 2-7), in [7] (female, athymic nude, iv, 4 h), the “biodistribution, kidney” value worked out at 6.95 % IA/g. For the same compound, the “biodistribution, spleen” value in [7] (female, athymic nude, iv, 4 h) came to 0.36 % IA/g. The tissue uptake at 4 h was determined as 0.21 %ID/g in data set [10] (adrenal); 0.19 %ID/g in [10] (blood); 0.16 %ID/g in data set [10] (bone); 0.12 %ID/g in data set [10] (heart); 0.88 %ID/g in data set [10] (liver); 0.06 %ID/g in data set [10] (muscle). Further, the figures for the tissue uptake at 4 h in [10] (pancreas), in data set [10] (pituitary) and in data set [10] (sst2 tumor) were 2.41 %ID/g, 0.21 %ID/g and 2.36 %ID/g, respectively.
